ChEMBL document CHEMBL1201862, “PubChem BioAssay data set” (2004)
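1) Cells in 96-well plates. 2) Compound, 48 h, 5 concentrations. 3) Linear interpolation between surrounding doses. 4) Unreached endpoint = highest concentration. GI50 is the concentration that inhibits growth by half.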 Activity calls are given as the source filed them. No stated cut-off is given here; in the data, active = GI50 up to about 1.1 µM and inactive = higher.

Experiments:
Test in all cases: NCI-60 cell line screen, 48 h
ACHN = system: ACHN
CAKI-1 = system: CAKI-1
CCRF-CEM = system: CCRF-CEM
EKVX = system: EKVX
HCT-15 = system: HCT-15
HL-60 = system: HL-60
HOP-92 = system: HOP-92
HT-29 = system: HT-29
Malme-3M = system: Malme-3M
NCI-H23 = system: NCI-H23
NCI-H460 = system: NCI-H460
OVCAR-3 = system: OVCAR-3
SF-295 = system: SF-295
SF-539 = system: SF-539
SK-MEL-28 = system: SK-MEL-28
SK-MEL-5 = system: SK-MEL-5
SNB-19 = system: SNB-19
UO-31 = system: UO-31
SR = system: SR

| SMILES | GI50 (ACHN) | GI50 (CAKI-1) | GI50 (CCRF-CEM) | GI50 (EKVX) | GI50 (HCT-15) [µM] | GI50 (HL-60) | GI50 (HOP-92) | GI50 (HT-29) | GI50 (Malme-3M) | GI50 (NCI-H23) | GI50 (NCI-H460) | GI50 (OVCAR-3) | GI50 (SF-295) | GI50 (SF-539) | GI50 (SK-MEL-28) | GI50 (SK-MEL-5) | GI50 (SNB-19) | GI50 (UO-31) | GI50 (SR) |
| --- | --- | --- | --- | --- | --- | --- | --- | --- | --- | --- | --- | --- | --- | --- | --- | --- | --- | --- | --- |
| O=C(N/C(=C\c1ccc(/C=C(\NC(=O)c2ccccc2)c2nc3ccccc3s2)cc1)c1nc2ccccc2s1)c1ccccc1 | 4.59 µM (inactive) | 14.9 µM (inactive) | 1.56 µM (inactive) | 1.83 µM (inactive) | 4.6 | 1.71 µM (inactive) | 12.5 µM (inactive) | 3.73 µM (inactive) | 11.9 µM (inactive) | 11.6 µM (inactive) | 4.25 µM (inactive) | 2.78 µM (inactive) | 4.5 µM (inactive) | 2.14 µM (inactive) | 11.1 µM (inactive) | 4.88 µM (inactive) | 4.09 µM (inactive) | 2.86 µM (inactive) |  |
| N[C@H](C(=O)O)[C@@H](Cl)CC(=O)O | > 100 µM (inactive) | > 100 µM (inactive) | > 100 µM (inactive) | > 100 µM (inactive) | > 100 | > 100 µM (inactive) | > 100 µM (inactive) | > 100 µM (inactive) | > 100 µM (inactive) | > 100 µM (inactive) | > 100 µM (inactive) | > 100 µM (inactive) | > 100 µM (inactive) | > 100 µM (inactive) | > 100 µM (inactive) | > 100 µM (inactive) | > 100 µM (inactive) | > 100 µM (inactive) |  |
| Cc1cc(C)c(S(=O)(=O)ONC(=O)OC(C)(C)C)c(C)c1 | > 100 µM (inactive) | > 100 µM (inactive) | > 100 µM (inactive) | > 100 µM (inactive) | > 100 | > 100 µM (inactive) | > 100 µM (inactive) | > 100 µM (inactive) | > 100 µM (inactive) | > 100 µM (inactive) | > 100 µM (inactive) | > 100 µM (inactive) | > 100 µM (inactive) | > 100 µM (inactive) | > 100 µM (inactive) | > 100 µM (inactive) | > 100 µM (inactive) | > 100 µM (inactive) |  |
| O=[N+]([O-])c1ccc2nc(/C(=N/Nc3ccccc3)C(O)c3ccco3)c(O)nc2c1 (stereo not given) | > 100 µM (inactive) | 85.5 µM (inactive) | 27.2 µM (inactive) | 39 µM (inactive) | > 100 | 19.9 µM (inactive) |  | > 100 µM (inactive) | > 100 µM (inactive) |  | > 100 µM (inactive) |  | > 100 µM (inactive) | 50.2 µM (inactive) |  | 44.5 µM (inactive) | > 100 µM (inactive) | 86.5 µM (inactive) | 55.2 µM (inactive) |
| Nn1c(-c2ccccc2)nc2ccc(Br)cc2c1=O | 34.8 µM (inactive) | 38.5 µM (inactive) | 20.2 µM (inactive) | 31.9 µM (inactive) | 40.8 | 15.6 µM (inactive) | 12.8 µM (inactive) | 61 µM (inactive) | 15.1 µM (inactive) | 81.5 µM (inactive) | 61.4 µM (inactive) | 24 µM (inactive) | 58.1 µM (inactive) | 53.8 µM (inactive) | > 100 µM (inactive) | 53.1 µM (inactive) | 95.3 µM (inactive) | 24.4 µM (inactive) |  |
| C[Si](C)(C)/C=C/CCC(C=O)(CCCl)c1ccccc1 (stereo not given) | 22.8 µM (inactive) |  | 29.6 µM (inactive) | 26 µM (inactive) | 19.5 | 6.98 µM (inactive) | 28.1 µM (inactive) | 14.6 µM (inactive) | 17.6 µM (inactive) | 21.8 µM (inactive) | 31.6 µM (inactive) | 16.7 µM (inactive) | 21.1 µM (inactive) | 31.2 µM (inactive) | 32.9 µM (inactive) | 17.8 µM (inactive) | 42.7 µM (inactive) | 44.2 µM (inactive) | > 10 µM (inactive) |
